According to ChEMBL document CHEMBL5380794, “Discovery of a Potent and Selective STAT5 PROTAC Degrader with Strong Antitumor Activity In Vivo in Acute Myeloid Leukemia” (J Med Chem, 2023):
pIC50: −log10 of the molar value. The source made the active and inactive calls. The rule behind the calls is not given here.

Tests used:
[1] = Antiproliferative activity against human OCI-M2 cells assessed as cell growth inhibition measured for 4 days by celltiter-glo assay; conditions: OCI-M2, 96 h
MV4-11 [2] = assay: Antitumor activity against human MV4-11 cells xenografted in SCID mouse assessed as tumor growth inhibition at 50 mg/kg, ip administered 5 days a week for 3 weeks; type: functional; conditions: MV4-11, 504 h, read-out: TGI
[3] = Antiproliferative activity against human SKNO-1 cells assessed as maximal cell growth inhibition measured for 4 days by celltiter-glo assay relative to control; type: functional; conditions: time 4 day
[4] = Antiproliferative activity against human OCI-M2 cells assessed as maximal cell growth inhibition measured for 4 days by celltiter-glo assay relative to control; type: functional; conditions: time 4 day
[5] = Antiproliferative activity against human Kasumi-3 cells assessed as maximal cell growth inhibition measured for 4 days by celltiter-glo assay relative to control; type: functional; conditions: time 4 day
MOLM-13 = assay: Antiproliferative activity against human MOLM-13 cells assessed as cell growth inhibition measured for 4 days by celltiter-glo assay; conditions: MOLM-13, 96 h
STAT5A/STAT5B = biological target: T1, STAT5A/STAT5B (Homo sapiens, UniProt P42229+P51692); assay: Induction of STAT5A/5B degradation in human SKNO-1 cells measured for 18 hrs by immunoblotting analysis; type: cell-based
T1 sequence (P42229 whole entry): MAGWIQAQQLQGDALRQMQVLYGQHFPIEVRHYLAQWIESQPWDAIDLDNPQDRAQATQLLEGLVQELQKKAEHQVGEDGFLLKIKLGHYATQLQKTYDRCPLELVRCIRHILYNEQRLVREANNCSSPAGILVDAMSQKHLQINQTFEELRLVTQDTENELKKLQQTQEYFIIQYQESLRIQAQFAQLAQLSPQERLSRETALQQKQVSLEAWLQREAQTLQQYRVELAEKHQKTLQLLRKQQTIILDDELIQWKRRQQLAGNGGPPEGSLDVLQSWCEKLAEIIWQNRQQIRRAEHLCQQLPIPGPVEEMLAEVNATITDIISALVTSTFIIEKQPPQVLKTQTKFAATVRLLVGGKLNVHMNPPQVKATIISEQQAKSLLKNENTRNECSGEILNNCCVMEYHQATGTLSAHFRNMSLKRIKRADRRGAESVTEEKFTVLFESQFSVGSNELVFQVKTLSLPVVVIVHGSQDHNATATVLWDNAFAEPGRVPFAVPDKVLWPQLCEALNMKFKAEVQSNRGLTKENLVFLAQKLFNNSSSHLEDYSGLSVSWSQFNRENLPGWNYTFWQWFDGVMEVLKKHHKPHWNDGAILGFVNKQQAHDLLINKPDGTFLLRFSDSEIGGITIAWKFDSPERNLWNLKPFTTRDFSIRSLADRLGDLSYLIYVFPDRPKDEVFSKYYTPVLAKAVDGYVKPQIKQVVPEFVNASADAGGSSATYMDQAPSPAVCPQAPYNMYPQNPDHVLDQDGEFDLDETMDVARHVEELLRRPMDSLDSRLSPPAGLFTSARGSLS
T1 sequence (P51692 whole entry): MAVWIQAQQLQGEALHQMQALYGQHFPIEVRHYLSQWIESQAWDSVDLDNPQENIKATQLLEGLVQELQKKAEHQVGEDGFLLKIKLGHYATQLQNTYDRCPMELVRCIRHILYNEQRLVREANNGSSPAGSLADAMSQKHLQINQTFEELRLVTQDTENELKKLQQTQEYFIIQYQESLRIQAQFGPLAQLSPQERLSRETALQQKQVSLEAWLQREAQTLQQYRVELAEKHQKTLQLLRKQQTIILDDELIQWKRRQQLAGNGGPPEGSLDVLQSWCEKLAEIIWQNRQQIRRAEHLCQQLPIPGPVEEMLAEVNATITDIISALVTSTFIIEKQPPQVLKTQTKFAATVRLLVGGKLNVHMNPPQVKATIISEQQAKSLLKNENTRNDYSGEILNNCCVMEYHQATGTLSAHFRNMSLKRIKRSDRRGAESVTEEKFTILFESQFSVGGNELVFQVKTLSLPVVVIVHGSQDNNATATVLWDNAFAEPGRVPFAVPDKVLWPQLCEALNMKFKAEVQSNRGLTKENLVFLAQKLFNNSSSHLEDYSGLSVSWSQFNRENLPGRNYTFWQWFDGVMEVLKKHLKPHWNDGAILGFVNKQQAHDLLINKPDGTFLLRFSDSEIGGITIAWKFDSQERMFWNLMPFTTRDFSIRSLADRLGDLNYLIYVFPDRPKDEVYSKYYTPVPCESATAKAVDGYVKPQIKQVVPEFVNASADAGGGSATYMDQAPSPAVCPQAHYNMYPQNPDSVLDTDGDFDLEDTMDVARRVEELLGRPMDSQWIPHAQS

SKNO-1 = assay: Effect on STAT4 level in human SKNO-1 cells upto 5 uM measured for 18 hrs by Western blot analysis; type: functional, cell-based
[6] = biological target: T2, Signal transducer and activator of transcription 5A (Homo sapiens, UniProt P42229); assay: Induction of STAT5 degradation in human Kasumi-3 cells assessed as reduction in phosphorylated STAT5 level measured for 18 hrs by immunoblotting analysis; type: cell-based
T2 sequence (P42229 whole entry): T1 sequence (P42229 whole entry)

[7] = biological target: T2, Signal transducer and activator of transcription 5A; assay: Induction of STAT5 degradation in human SKNO-1 cells measured for 18 hrs by Western blot analysis; type: cell-based
[8] = Toxicity in SCID mouse assessed as body weight loss at 50 to 200 mg/kg, ip administered 5 days a week for 3 weeks; type: organism-based; conditions: in vivo, 504 h, dose 50-200 mg/kg
MV4-11 [9] = assay: Effect on STAT2 level in human MV4-11 cells upto 5 uM measured for 18 hrs by Western blot analysis; type: functional, cell-based
[10] = Toxicity in SCID mouse assessed as effect on sign of illness at 50 to 200 mg/kg, ip administered 5 days a week for 3 weeks; type: organism-based; conditions: in vivo, 120 h, dose 50-200 mg/kg, time 5 day
[11] = Antiproliferative activity against human BDCM cells assessed as maximal cell growth inhibition measured for 4 days by celltiter-glo assay relative to control; type: functional; conditions: time 4 day
[12] = Clearance in SCID mouse at 150 mg/kg, ip; type: ADME, organism-based; conditions: in vivo
[13] = Antiproliferative activity against human Kasumi-3 cells assessed as cell growth inhibition measured for 4 days by celltiter-glo assay; conditions: Kasumi-3, 96 h
[14] = In vivo induction of degradation of STAT5 in human MV4-11 cells xenografted in SCID mouse assessed as reduction in STAT5 phosphorylation at Y694 residue at 150 mg/kg, ip measured at 1 to 24 hrs by immunoblotting analysis; type: functional; design: scale not given: the % may be the effect or the level left; conditions: time 1-24 hrs
MV4-11 [15] = assay: Antiproliferative activity against human MV4-11 cells assessed as maximal cell growth inhibition measured for 4 days by celltiter-glo assay relative to control; type: functional; conditions: time 4 day
[16] = Antiproliferative activity against human SKNO-1 cells assessed as cell growth inhibition measured for 4 days by celltiter-glo assay; conditions: SKNO-1, 96 h
MV4-11 [17] = assay: Antiproliferative activity against human MV4-11 cells assessed as cell growth inhibition measured for 4 days by celltiter-glo assay; conditions: MV4-11, 96 h
RS4-11 = assay: Antiproliferative activity against human RS4-11 cells assessed as maximal cell growth inhibition measured for 4 days by celltiter-glo assay relative to control; type: functional; conditions: time 4 day

For `CN(CCCC#Cc1cccc2c1CN(C1CCC(=O)NC1=O)C2=O)C(=O)CCN(C(=O)[C@@H]1CCCN1C(=O)[C@@H](NC(=O)c1cc2cc(C(F)(F)P(=O)(O)O)ccc2s1)C(C)(C)C)c1ccc(-c2nccs2)cc1` (stereo partly specified), the pIC50 [1] was < 4.82, the inhibition in vivo at 50 mg/kg (MV4-11 [2]) was 50% and the Imax [3] was 64%. For the same compound, the Imax [4] was <5%, the Imax [5] was 72% and the pIC50 (MOLM-13) was < 4.82. For the same compound, the DC50 (STAT5A/STAT5B) was 80 nM, the Activity (SKNO-1) was “inactive” and the DC50 [6] was 250 nM. The DC50 [7] was 100 nM, the Activity [8] was “Non-Toxic” and the Activity (MV4-11 [9]) was “inactive”. For the same compound, the Activity [10] was “Non-Toxic”, the Imax [11] was <5% and the CL/F [12] was 12.8 mL/min/kg. The pIC50 [13] was 6.46, the Activity [14] was >95% and the Imax (MV4-11 [15]) was 65%. The pIC50 [16] was 6.44, the pIC50 (MV4-11 [17]) was 6.74 and the Imax (RS4-11) was <5%.
